For the assay, the system named is influenza A (H1N1) virus-infected egg cells. As to the kind of experiment: Quantity of IL-1 released by influenza A (H1N1) virus-infected egg cells. The class given is cell-based. The settings on record: for quantity of IL-1 released: 24 hours, FIG. 5; for percentage of quantity of human IL-1 released relative to quantity of isolated egg cells (diluted 1:50): uninfected culture 1 = 100%, FIG. 6. As to the method: Experiments were conducted to evaluate the effects of particular phytochemical compositions provided by the present disclosure on quantity of IL-1 released by virus-infected cells. Virus-infected cells used for the experiments described in this example are influenza A (H1N1) virus-infected cells. More specifically, the virus-infected cells used for the experiments described in this example are influenza A (H1N1) virus-infected egg cells. The influenza A (H1N1) virus can be isolated from patients infected with the influenza A (H1N1) using standard techniques known to a person of ordinary skill in the art. In addition, isolation of cells (e.g., egg cells), and the infection of cells (e.g., isolated egg cells) can be performed using standard techniques or method known to a person of ordinary skill in the art. It is understood by a person having ordinary skill in the art that the influenza A (H1N1) virus-infected egg cells may be substituted for other viral-infected cells, or other cells found within the body, for instance, cells that that are involved in inflammatory responses within the body.
Six cultures of cells, i.e., culture 1 to culture 6, were prepared. The contents of each of cultures 1 to culture 6 are as follows: • (i) Culture 1: Control culture 1. Includes a predetermined volume of a sample of isolated egg cells that has been diluted in a ratio of 1:50; • (ii) Culture 2: Control culture 2. Includes the predetermined volume of the sample of isolated egg cells similar to that of culture 1 that have been infected with the influenza A (H1N1) virus diluted at a ratio of 1:7812500; • (iii) Culture 3: Control culture 3. Includes the predetermined volume of the sample of isolated egg cells similar to that of culture 1 and a volume of DMSO that has been infected with the influenza A (H1N1) virus diluted at a ratio of 1:7812500; • (iv) Culture 4: Includes the predetermined volume of the sample of isolated egg cells that have been infected with the influenza A (H1N1) virus similar to that of culture 2, and a volume of phytochemical composition providing sesamin at a concentration of 0.5 ug/ml; • (v) Culture 5: Includes the predetermined volume of the sample of isolated egg cells that have been infected with the influenza A (H1N1) virus similar to that of culture 2, and a volume of phytochemical composition providing sesamin at a concentration of 1.0 ug/ml; and • (vi) Culture 6: Includes the predetermined volume of the sample of isolated egg cells that have been infected with the influenza A (H1N1) virus similar to that of culture 2, and a volume of phytochemical composition providing sesamin at a concentration of 10.0 ug/ml.
In the experiments of example six, each of cultures 1 to 6 is made up to a final volume of approximately 200 μl in a well of a standard 96 well plate. It will be understood by a person of ordinary skill in the art that an alternative final volume (e.g., 100 μl) may also be used. The number or concentration of isolated egg cells used for each culture is approximately equal. For instance, the number of isolated egg cells used for each culture is approximately 2×10^5 (i.e., 200,000). It will be understood by a person of ordinary skill in the art that the number or concentration of isolated egg cells used for each of cultures 1 to 6 can be adjusted as required by varying the degree of dilution of the cultures (e.g., by increasing total volume of the culture by adding medium).
Each of cultures 1 to 6 was incubated at the same physical conditions for an equal length of time. More specifically, each culture was incubated at a temperature of 37° C. with 5% of carbon dioxide for 24 hours. The amount of IL-1 released from the isolated egg cells of each of cultures 1 to 6 was measured or determined using methods or techniques known to a person having ordinary skill in the relevant art.

Regarding `c1cc2c(cc1[C@H]1OC[C@H]3[C@@H]1CO[C@@H]3c1ccc3c(c1)OCO3)OCO2` [sesamin], the “quantity of IL-1 released” value is on record as “approximately 4 pg/ml” (0.5 ug/ml sesamin (culture 4)), “approximately 3.5 pg/ml” (1.0 ug/ml sesamin (culture 5)) and “approximately 3 pg/ml” (10.0 ug/ml sesamin (culture 6)). The “percentage of quantity of human IL-1 released relative to quantity of isolated egg cells (diluted 1:50)” value reads like this: (0.5 ug/ml sesamin) “approximately 22%”; (1.0 ug/ml sesamin) “approximately 18%”; (10.0 ug/ml sesamin) “approximately 16%”.

These data come from US20170333390A1, “PHYTOCHEMICAL COMPOSITIONS INCLUDING SESAMIN FOR ANTI-INFLAMMATORY, ANTI-CYTOKINE STORM, AND OTHER USES” (CHIANG MAI UNIVERSITY, priority 2009, published 2017).
